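Method: 48-hour compound exposure of cells in 96-well plates, five concentrations, linear interpolation of endpoints. GI50: concentration for 50% inhibition of growth.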 Active and inactive are the calls of the source. No stated cut-off is given here; in the data, active = GI50 up to about 1.1 µM and inactive = higher.
Columns and labels:
Assay in all cases: NCI anticancer screen, dose series, 48 h
IGROV-1 = system: IGROV-1
MOLT-4 = system: MOLT-4
SK-OV-3 = system: SK-OV-3
PC-3 = system: PC-3
HOP-92 = system: HOP-92
SN12C = system: SN12C
UACC-62 = system: UACC-62
SNB-75 = system: SNB-75
HOP-62 = system: HOP-62
K562 = system: K562
COLO 205 = system: COLO 205
SNB-19 = system: SNB-19
RPMI-8226 = system: RPMI-8226
A549 = system: A549
MDA-MB-435 = system: MDA-MB-435
SW-620 = system: SW-620
RXF 393 = system: RXF 393
OVCAR-5 = system: OVCAR-5
TK-10 = system: TK-10
U-251 = system: U-251

| Compound | GI50 (IGROV-1) | GI50 (MOLT-4) | GI50 (SK-OV-3) | GI50 (PC-3) | GI50 (HOP-92) | GI50 (SN12C) | GI50 (UACC-62) | GI50 (SNB-75) | GI50 (HOP-62) | GI50 (K562) | GI50 (COLO 205) | GI50 (SNB-19) | GI50 (RPMI-8226) | GI50 (A549) | GI50 (MDA-MB-435) | GI50 (SW-620) | GI50 (RXF 393) | GI50 (OVCAR-5) | GI50 (TK-10) | GI50 (U-251) |
| --- | --- | --- | --- | --- | --- | --- | --- | --- | --- | --- | --- | --- | --- | --- | --- | --- | --- | --- | --- | --- |
| Cn1cnc([N+](=O)[O-])c1Sc1nc(N)nc2c1ncn2[C@H]1C[C@H](O)[C@@H](CO)O1 | 5.13 µM (inactive) | 2.43 µM (inactive) | 0.463 µM (active) | 6.84 µM (inactive) | 17.3 µM (inactive) | 5.16 µM (inactive) | 1.51 µM (inactive) | 5.68 µM (inactive) | 0.971 µM (active) | 2.71 µM (inactive) | 4.63 µM (inactive) | 62.1 µM (inactive) | 1.09 µM (active) | 4.63 µM (inactive) | 2.29 µM (inactive) | 6.5 µM (inactive) | 8.32 µM (inactive) | 3.08 µM (inactive) | 3.98 µM (inactive) | 12 µM (inactive) |
| CCC1CN2CCc3cc(OC)c(OC)cc3C2CC1CC1c2cc(OC)c(OC)cc2CCN1C(=O)C(Cc1c[nH]c2ccccc12)NC(=O)OC(C)(C)C (centres undefined) | 1.73 µM (inactive) | 2.47 µM (inactive) | 4.8 µM (inactive) | 3.12 µM (inactive) | 2.62 µM (inactive) | 3.26 µM (inactive) | 5.64 µM (inactive) | 2.59 µM (inactive) | 4.91 µM (inactive) | 2.7 µM (inactive) | 1.57 µM (inactive) | 7.59 µM (inactive) | 2.52 µM (inactive) | 3.61 µM (inactive) | 1.78 µM (inactive) | 2.82 µM (inactive) | 2.67 µM (inactive) | 8.81 µM (inactive) | 7.83 µM (inactive) | 2.57 µM (inactive) |
| COc1ccc2c(c1)CN1C(=N2)CSC1c1cccc(Br)c1 (centres undefined) | 43.9 µM (inactive) | 6.82 µM (inactive) | > 100 µM (inactive) | 17.7 µM (inactive) | 8.61 µM (inactive) | 20.4 µM (inactive) | 17.8 µM (inactive) | 14.9 µM (inactive) | 46.8 µM (inactive) | 5.89 µM (inactive) | 31.7 µM (inactive) | 47.3 µM (inactive) | 6.44 µM (inactive) | 30.6 µM (inactive) | 6.15 µM (inactive) | 15.8 µM (inactive) | 19.9 µM (inactive) | > 100 µM (inactive) | 59.8 µM (inactive) | 26.5 µM (inactive) |
| O=C1c2cccc([N+](=O)[O-])c2C(=O)N1Cc1ccccc1 | > 100 µM (inactive) | > 100 µM (inactive) | > 100 µM (inactive) | > 100 µM (inactive) | > 100 µM (inactive) | > 100 µM (inactive) | > 100 µM (inactive) | > 100 µM (inactive) | > 100 µM (inactive) | > 100 µM (inactive) | > 100 µM (inactive) | > 100 µM (inactive) | > 100 µM (inactive) | > 100 µM (inactive) | > 100 µM (inactive) | > 100 µM (inactive) | > 100 µM (inactive) | > 100 µM (inactive) | > 100 µM (inactive) | > 100 µM (inactive) |
| CC(=O)C1(Cc2cccc3ccccc23)S(=O)(=O)OCCOS1(=O)=O | 4.69 µM (inactive) | 29.1 µM (inactive) | 2.72 µM (inactive) | 14.2 µM (inactive) | 15.5 µM (inactive) | 11.9 µM (inactive) | 14.6 µM (inactive) | 35.4 µM (inactive) | 20.9 µM (inactive) | 28.4 µM (inactive) | 17 µM (inactive) | 18.4 µM (inactive) | 19.5 µM (inactive) |  | 14.7 µM (inactive) | 18.3 µM (inactive) | 12.7 µM (inactive) | 17.6 µM (inactive) | 17.3 µM (inactive) | 16.7 µM (inactive) |
| COc1c(/C=C/C=O)cc2c(c1OC)OCO2 | 22.8 µM (inactive) | 20.5 µM (inactive) | 60.8 µM (inactive) | 34.5 µM (inactive) | 61.5 µM (inactive) | 24.2 µM (inactive) | 19.3 µM (inactive) | > 100 µM (inactive) | 25.5 µM (inactive) |  | > 100 µM (inactive) | 16.4 µM (inactive) | 14.3 µM (inactive) | > 100 µM (inactive) | 49.3 µM (inactive) | 51.2 µM (inactive) | > 100 µM (inactive) | 7.41 µM (inactive) | 40.4 µM (inactive) | 23.2 µM (inactive) |
| C[n+]1cn(-c2ccc([N+](=O)[O-])cn2)c2ccccc21 | > 100 µM (inactive) | > 100 µM (inactive) | > 100 µM (inactive) | > 100 µM (inactive) | > 100 µM (inactive) |  | > 100 µM (inactive) | > 100 µM (inactive) | > 100 µM (inactive) | > 100 µM (inactive) | > 100 µM (inactive) | > 100 µM (inactive) | > 100 µM (inactive) | > 100 µM (inactive) | > 100 µM (inactive) | > 100 µM (inactive) | > 100 µM (inactive) | > 100 µM (inactive) | > 100 µM (inactive) | > 100 µM (inactive) |
| CC(C)=CCc1c2c(c(O)c3c(=O)c4c(oc13)-c1ccc(O)cc1OC4C=C(C)C)C=CC(C)(C)O2 (centres undefined) | 14 µM (inactive) |  | 18.5 µM (inactive) | 12.1 µM (inactive) | 7.11 µM (inactive) | 6.35 µM (inactive) | 13.7 µM (inactive) | 11.9 µM (inactive) | 14.2 µM (inactive) | 8.65 µM (inactive) | 21 µM (inactive) | 15.3 µM (inactive) | 3.54 µM (inactive) | 10.8 µM (inactive) | 10.6 µM (inactive) | 8.32 µM (inactive) | 7.29 µM (inactive) | 20.2 µM (inactive) | 14.8 µM (inactive) | 12.2 µM (inactive) |
| O=C(CSCC(=O)N/N=C/c1ccncc1)N/N=C/c1ccncc1 | > 100 µM (inactive) | > 100 µM (inactive) | > 100 µM (inactive) | > 100 µM (inactive) | > 100 µM (inactive) | > 100 µM (inactive) | > 100 µM (inactive) | > 100 µM (inactive) | > 100 µM (inactive) | > 100 µM (inactive) |  | > 100 µM (inactive) | > 100 µM (inactive) | > 100 µM (inactive) | > 100 µM (inactive) | > 100 µM (inactive) | > 100 µM (inactive) | > 100 µM (inactive) | > 100 µM (inactive) | > 100 µM (inactive) |
| O=C(/C=C/c1ccc(Cl)cc1)Oc1ccc(C=C2CCC/C(=C\c3ccc(OC(=O)/C=C/c4ccc(Cl)cc4)cc3)C2=O)cc1 | > 100 µM (inactive) | > 100 µM (inactive) | > 100 µM (inactive) | > 100 µM (inactive) | > 100 µM (inactive) | > 100 µM (inactive) | > 100 µM (inactive) | > 79.1 µM (inactive) | > 100 µM (inactive) | > 100 µM (inactive) | > 100 µM (inactive) | > 100 µM (inactive) | > 45.9 µM (inactive) | > 100 µM (inactive) | > 100 µM (inactive) | > 100 µM (inactive) | > 100 µM (inactive) | > 100 µM (inactive) | > 100 µM (inactive) | > 100 µM (inactive) |
| O=C(NCCN(CCNC(=O)c1cccc(=O)n1O)CCN(CCNC(=O)c1cccc(=O)n1O)CCNC(=O)c1cccc(=O)n1O)c1cccc(=O)n1O | > 100 µM (inactive) |  | > 100 µM (inactive) | > 100 µM (inactive) | > 100 µM (inactive) | > 100 µM (inactive) | > 100 µM (inactive) | > 100 µM (inactive) | > 100 µM (inactive) | > 100 µM (inactive) | > 100 µM (inactive) | > 100 µM (inactive) | > 100 µM (inactive) | > 100 µM (inactive) | > 100 µM (inactive) | > 100 µM (inactive) | > 100 µM (inactive) | > 100 µM (inactive) | > 100 µM (inactive) | > 100 µM (inactive) |
| CC(=O)NNc1nc(C)c(C(/C=C/c2ccc([N+](=O)[O-])cc2)=N/NC(N)=O)s1 | 44.8 µM (inactive) | > 100 µM (inactive) | > 100 µM (inactive) | > 100 µM (inactive) | > 100 µM (inactive) | > 100 µM (inactive) | > 100 µM (inactive) | > 100 µM (inactive) | > 100 µM (inactive) | > 100 µM (inactive) | > 100 µM (inactive) | > 100 µM (inactive) | > 100 µM (inactive) | > 100 µM (inactive) | > 100 µM (inactive) | > 100 µM (inactive) | > 100 µM (inactive) | > 100 µM (inactive) | > 100 µM (inactive) | > 100 µM (inactive) |
| Cc1ccc(S(=O)(=O)NC(CO)C(=O)O)cc1 (centres undefined) | > 100 µM (inactive) | > 100 µM (inactive) | > 100 µM (inactive) | > 100 µM (inactive) | > 100 µM (inactive) | > 100 µM (inactive) | > 100 µM (inactive) | > 100 µM (inactive) | > 100 µM (inactive) | > 100 µM (inactive) | > 100 µM (inactive) | > 100 µM (inactive) | > 100 µM (inactive) | > 100 µM (inactive) | > 100 µM (inactive) | > 100 µM (inactive) | > 100 µM (inactive) | > 100 µM (inactive) | > 100 µM (inactive) | > 100 µM (inactive) |
| O=C(NNC(=O)c1ccncc1)c1ccncc1 | > 100 µM (inactive) | > 100 µM (inactive) | > 100 µM (inactive) | > 100 µM (inactive) | > 100 µM (inactive) | > 100 µM (inactive) | > 100 µM (inactive) | > 100 µM (inactive) | > 100 µM (inactive) | > 100 µM (inactive) | > 100 µM (inactive) | > 100 µM (inactive) | > 100 µM (inactive) | > 100 µM (inactive) | > 100 µM (inactive) | > 100 µM (inactive) | > 100 µM (inactive) | > 100 µM (inactive) | > 100 µM (inactive) | > 100 µM (inactive) |
